Experiments:
[1] = tested on: 4T1 syngeneic orthotopic breast carcinoma; experiment: Confocal microscopy of 4T1 tumor slices after i.v. injection of dual-labeled liposomes; type: in vivo, mice; conditions: 24 h post-injection; EPC/DSPE-PEG2000 liposomes, 0.2 mole % DiI and Cy5-DSPE, i.v.
Procedure: Lipids at the following molar ratios: HSPC/Chol/DSPE-PEG2000 (57/38/5) or EPC/DSPE-PEG2000 (95:5) with addition of 0.2% ICL and/or 0.2% FPL were mixed and dried under a nitrogen stream. The dry lipid cake was resuspended in PBS for a total lipid concentration of 20 mM, then incubated at 60° C. for 30 minutes. The solution was then vortexed for 2 minutes and bath sonicated. Liposomes were extruded by a syringe extruder (Avestin, Ottawa, Canada) through Whatman Nucleopore Track-Etch Membranes (200 nm pore size, 15 times). HSPC-based liposomes were extruded at 60° C., EPC-based liposomes were extruded at room temperature. Size and zeta potential were measured at room temperature in the presence of 1% phosphate-buffered saline using Zetasizer Nano (Malvern, UK). Liposomes were stored at 4° C. at a final concentration of 10 mM (total lipid) for a maximum period of 8 weeks before use.
4T1 cell line was purchased from the ATCC and verified using a sequencing core. GL261 cells were obtained from the National Cancer Institute (NCI), and CT2A cells were a gift from Dr. Tom Seyfried (Boston College). LY2 cells were from Dr. Sana Karam, University of Colorado Anschutz Medical campus. Cells were grown at 37° C. in RPMI 1640 medium containing 10% heat-inactivated fetal bovine serum, 10 mM HEPES, 100 U/ml penicillin, and […] streptomycin (all from Corning Inc. New York, NY, USA). BALB/c mice were bred in-house. Mice of 8-10 weeks of age (females) were implanted with 0.5×10^6 cells into the mammary fat pad (4T1) or subcutaneously in the jaw region (LY2) and used for experiments 1 week later when tumors reached ˜200-300 mm^3. For brain tumors, C57BL/6 mice (6-8 weeks old) were implanted with a total 1×10^5 GL261 or CT-2A cells per animal using an established protocol. To determine the distribution of liposomes in tumors and organs, liposomes were injected with 50 μl of 10 mM total lipid intravenously. Blood was collected via periorbital plexus using heparin glass capillaries, and the plasma was separated by centrifugation at 500 g for 5 min. In some experiments, mice were preinjected before dissection with 50 μl of FITC-tomato lectin (1 mg/ml) and 50 μl Hoechst 33324 (2 mg/ml) to visualize the vasculature and the nuclei. Mice were sacrificed with carbon dioxide, followed by cardiac perfusion with PBS through the left ventricle.
Nikon Eclipse AR1HD inverted confocal microscope with 405 nm, 488 nm, 561 nm, and 640 nm excitation lasers and corresponding emission filters was used. For high magnification imaging, liposomes were diluted 1:200 in PBS, mixed with glycerol at 1:1 ratio and 2 μl were placed on slide. For liposomes in plasma, the samples were diluted 1:20 and mixed with glycerol. The preparations in glycerol were spread under a coverslip and imaged under Apo60 or Apo100 Oil objective at 2048×2048 resolution. For tumor imaging, tumors or whole brains were frozen on dry ice and sliced with a blade into 1-2 mm thick slices. The slices were placed on a glass slide and imaged using Plan Apo 10 objective. Channels' voltage and laser intensity were adjusted using the dual labeled liposomes placed on a slide and imaged under the same magnification. These parameters were calibrated before each imaging session using the batch of liposomes used in that experiment. For quantification, multiple random image areas from different slices of the tumor (both periphery and center) were acquired at 512×512 resolution. Images were quantified with Fiji using customized macros. Briefly, 8-bit gray image stacks were thresholded for fluorescence in the Cy3 and Cy5 channels and the percentages of binary (positive) areas were calculated using the “Measure” function. All the data were plotted with Prism version 8.3.0 (GraphPad, San Diego, CA).

[2] = tested on: 4T1 tumor cells and F4/80+ tumor-associated macrophages; experiment: Flow cytometry of 4T1 tumor single-cell suspension after i.v. labeled liposomes; type: in vivo, mice; conditions: 72 h after a single i.v. injection; liposomes labeled with 0.2% dye
Procedure: 4T1 cell line was purchased from the ATCC and verified using a sequencing core. GL261 cells were obtained from the National Cancer Institute (NCI), and CT2A cells were a gift from Dr. Tom Seyfried (Boston College). LY2 cells were from Dr. Sana Karam, University of Colorado Anschutz Medical campus. Cells were grown at 37° C. in RPMI 1640 medium containing 10% heat-inactivated fetal bovine serum, 10 mM HEPES, 100 U/ml penicillin, and […] streptomycin (all from Corning Inc. New York, NY, USA). BALB/c mice were bred in-house. Mice of 8-10 weeks of age (females) were implanted with 0.5×10^6 cells into the mammary fat pad (4T1) or subcutaneously in the jaw region (LY2) and used for experiments 1 week later when tumors reached ˜200-300 mm^3. For brain tumors, C57BL/6 mice (6-8 weeks old) were implanted with a total 1×10^5 GL261 or CT-2A cells per animal using an established protocol. […]
A single-cell suspension of tumor tissue was prepared for flow cytometry analysis, as previously described. […] After incubation on ice for 20 minutes and washing, cells were analyzed for staining using the Guava EasyCyte HT flow cytometer (Merck KGaA). Cells were resuspended at ˜0.5 million/ml, and 20,000 events were detected. Dead cells and fragments were excluded with FSC/SSC dot plot, and the percentage of Cy5+ cells was analyzed with FlowJo software Version 10.6 (FlowJo, LLC). […]

[3] = Incubation of liposomes in liver homogenates, fluorescence ratio and TLC; type: in vitro ADME, BALB/c mice; conditions: 24 h and 48 h incubation
Procedure: Liposomes were incubated at 2 mM in 80% mouse serum, PBS or 1% Tween/PBS for different times at 37° C. Following incubation, the samples were dotted on a nitrocellulose membrane and scanned at Cy3 and Cy5 wavelengths. Alternatively, to measure the release in serum, the samples were diluted after incubation 10-fold in PBS and ultracentrifuged at 80,000 rpm for 30 min, 4° C. using TLA-100.3 rotor of Beckman Optima ultracentrifuge. The supernatant in serum, liposomes in whole serum, and liposomes in PBS were dotted and scanned at Cy3 and Cy5 wavelengths with a Bio-Rad camera imager using Cy3 and Cy5 filters. The mean fluorescence of the dots was determined and used to calculate the percentage of release in serum. To measure the effect of tissue on DiI/Cy5 fluorescence ratio, livers from BALB/c mice were homogenized for 5 min in PBS (1:2 weight: volume ratio) using BioSpec Mini BeadBeater-16 tissue homogenizer with 1-2 zirconium beads added per tube. […]
For extraction using a modified Bligh-Dyer method, 50-100 mg tissue was homogenized as described above, 10 parts of chloroform/methanol (2:1) were added to the homogenate (considering that tissue weight is 1 part), and the samples were mixed at 1400 rpm for 2 h at room temperature on Eppendorf Thermomixer. […] The percentage of the injected DiI and Cy5 in the extract was calculated from the standard curve and divided by tissue weight. […]

CCCCCCCCCCCCCCCCCC(=O)OC[C@H](COP(=O)(O)OCCNC(=O)CCCCCN1C(=CC=CC=CC2=[N+](C)c3ccccc3C2(C)C)C(C)(C)c2ccccc21)OC(=O)CCCCCCCCCCCCCCCCC [Cy5-DSPE]
extravasation and distribution in tumor [1]: mostly confined to blood vessels
accumulation in cells in the tumor [2]: minimal accumulation
TLC of extracts of liver homogenates [3]: appearance of degradation products
